Article PMC12190436, “5-Ene-2-arylaminothiazol-4(5H)-ones Induce Apoptosis in Breast Cancer Cells” (Cells, 2025)

What was measured:
cytochrome C = cytochrome C concentration, SimpleStep ELISA; type: cell-based, human; conditions: 5 µM, 24 h, MCF-7
Description: To determine the effects of the new 4-thiazolidinone derivatives and the reference drug on the concentration of p53 and cytochrome C in MCF-7 cell lysates or supernatants after 24 h of treatment, highly sensitive SimpleStep ELISA (enzyme-linked immunosorbent assay) kits (Abcam, Cambridge, UK) were applied. The cells were collected and washed thrice with cold PBS and centrifuged at 1000× g for 5 min at 4 °C. Next, the cells were suspended in lysis buffer to acquire cell lysates. Concurrently, the supernatants, acquired after centrifugation, were frozen immediately at −80 °C. The standards, samples, and antibody cocktail were added to the appropriate microtiter plate wells, followed by 1 h incubation at room temperature. The content of microplate wells was extracted, and the wells were washed thrice. Afterwards, a TMB development solution was added to each well. The enzyme–substrate reaction was terminated with a stop solution. The change in color was assessed by UV-VIS Helios Gamma (Unicam/ThermoFisher Scientific Inc., Cleveland, OH, USA) at 450 ± 2 nm wavelength.
Both p53 and cytochrome C proteins play pivotal roles in the process of apoptosis. For this reason, concentrations of the mentioned proteins were measured in MCF-7 cells after 24 h treatment with the tested compounds (Les-6416, Les-6418, Les-6381, Les-6423, Les-6424) in concentrations of 5 µM.

SR = type: cell-based
EKVX = type: cell-based
HOP-62 = type: cell-based
NCI-H23 = type: cell-based
COLO 205 = type: cell-based
HCC -2998 = type: cell-based
HCT-15 = type: cell-based
Colon Cancer = type: cell-based
SF-268 = type: cell-based
SNB-75 = type: cell-based
UACC-257 = type: cell-based
Melanoma = type: cell-based
OVCAR-3 = type: cell-based
OVCAR-4 = type: cell-based
Ovarian Cancer = type: cell-based
A498 = type: cell-based
RXF 393 = type: cell-based
UO-31 = type: cell-based
Renal Cancer = type: cell-based
MDA-MB-231/ATCC = type: cell-based
BT-549 = type: cell-based
[1] = Homo sapiens, 48 h, read-out: LC50 (the source's name)

COc1cc(NC2=NC(=O)C(=Cc3ccc4cc[nH]c4c3)S2)cc(OC)c1OC [Les-6416, 5-((1H-Indol-6-yl)methylene)-2-((3,4,5-trimethoxyphenyl)amino)thiazol-4(5H)-one]
Concentration of cytochrome c (cytochrome C): 4.56 ± 0.85 ng/mL

COc1cc(NC2=NC(=O)C(=Cc3c[nH]c4ccccc34)S2)cc(OC)c1OC [Les-6418, 5-((1H-Indol-3-yl)methylene)-2-((3,4,5-trimethoxyphenyl)amino)thiazol-4(5H)-one]
TGI (SR; 48 h): 29.9 µM
GI50 (SR; Homo sapiens, 48 h): 0.394 µM
CC50 (SR; [1]): > 100 µM
SI (TGI) (SR; MG_MID_60/value): 0.62
TGI (EKVX; 48 h): 22.2 µM
GI50 (EKVX; Homo sapiens, 48 h): 8.02 µM
LC50 (EKVX; Homo sapiens, 48 h): 53.2 µM
SI (TGI) (EKVX; MG_MID_60/value): 0.84
TGI (HOP-62; HOP-62, 48 h): 15.7 µM
SI (TGI) (HOP-62; HOP-62, MG_MID_60/value): 1.18
GI50 (HOP-62; Homo sapiens, HOP-62, 48 h): 2.69 µM
LC50 (HOP-62; Homo sapiens, HOP-62, 48 h): 65.9 µM
GI50 (NCI-H23; Homo sapiens, NCI-H23, 48 h): 5.33 µM
CC50 (NCI-H23; Homo sapiens, NCI-H23, 48 h, read-out: LC50 (the source's name)): 54 µM
TGI (NCI-H23; NCI-H23, 48 h): 21.1 µM
SI (TGI) (NCI-H23; NCI-H23, MG_MID_60/value): 0.88
TGI (COLO 205; COLO 205, 48 h): 16.4 µM
SI (TGI) (COLO 205; COLO 205, MG_MID_60/value): 1.13
GI50 (COLO 205; Homo sapiens, COLO 205, 48 h): 3.14 µM
CC50 (COLO 205; Homo sapiens, COLO 205, 48 h, read-out: LC50 (the source's name)): 49.6 µM
TGI (HCC -2998; HCC -2998, 48 h): 20.7 µM
SI (TGI) (HCC -2998; HCC -2998, MG_MID_60/value): 0.90
GI50 (HCC -2998; Homo sapiens, HCC -2998, 48 h): 6.36 µM
CC50 (HCC -2998; Homo sapiens, HCC -2998, 48 h, read-out: LC50 (the source's name)): 47.8 µM
TGI (HCT-15; HCT-15, 48 h): 12.4 µM
SI (TGI) (HCT-15; HCT-15, MG_MID_60/value): 1.50
GI50 (HCT-15; Homo sapiens, HCT-15, 48 h): 1.79 µM
CC50 (HCT-15; Homo sapiens, HCT-15, 48 h, read-out: LC50 (the source's name)): 37.7 µM
MG_MID TGI (Colon Cancer; Colon Cancer subpanel mean): 15.5 µM
SI (MG_MID TGI) (Colon Cancer; Colon Cancer subpanel, MG_MID_60/value): 1.20
GI50 (Colon Cancer; Homo sapiens, Colon Cancer subpanel mean, read-out: MG_MID GI50): 2.48 µM
CC50 (Colon Cancer; Homo sapiens, Colon Cancer subpanel mean, read-out: MG_MID LC50): 55.6 µM
GI50 (SF-268; Homo sapiens, SF-268, 48 h): 3.56 µM
CC50 (SF-268; Homo sapiens, SF-268, 48 h, read-out: LC50 (the source's name)): 81.3 µM
TGI (SF-268; SF-268, 48 h): 20.0 µM
SI (TGI) (SF-268; SF-268, MG_MID_60/value): 0.93
GI50 (SNB-75; Homo sapiens, SNB-75, 48 h): 1.24 µM
CC50 (SNB-75; Homo sapiens, SNB-75, 48 h, read-out: LC50 (the source's name)): 11.9 µM
TGI (SNB-75; SNB-75, 48 h): 3.63 µM
SI (TGI) (SNB-75; SNB-75, MG_MID_60/value): 5.12
GI50 (UACC-257; Homo sapiens, UACC-257, 48 h): 5.18 µM
CC50 (UACC-257; Homo sapiens, UACC-257, 48 h, read-out: LC50 (the source's name)): 52.7 µM
TGI (UACC-257; UACC-257, 48 h): 21.1 µM
SI (TGI) (UACC-257; UACC-257, MG_MID_60/value): 0.88
GI50 (Melanoma; Homo sapiens, Melanoma subpanel mean, read-out: MG_MID GI50): 3 µM
CC50 (Melanoma; Homo sapiens, Melanoma subpanel mean, read-out: MG_MID LC50): 43.1 µM
MG_MID TGI (Melanoma; Melanoma subpanel mean): 14.9 µM
SI (MG_MID TGI) (Melanoma; Melanoma subpanel, MG_MID_60/value): 1.25
GI50 (OVCAR-3; Homo sapiens, OVCAR-3, 48 h): 0.517 µM
CC50 (OVCAR-3; Homo sapiens, OVCAR-3, 48 h, read-out: LC50 (the source's name)): 34 µM
Growth % (OVCAR-3; OVCAR-3, 10 μM, one dose, 48 h): 76.96%
TGI (OVCAR-3; OVCAR-3, 48 h): 5.32 µM
SI (TGI) (OVCAR-3; OVCAR-3, MG_MID_60/value): 3.50
GI50 (OVCAR-4; Homo sapiens, OVCAR-4, 48 h): 2.88 µM
CC50 (OVCAR-4; Homo sapiens, OVCAR-4, 48 h, read-out: LC50 (the source's name)): 35.3 µM
TGI (OVCAR-4; OVCAR-4, 48 h): 10.6 µM
SI (TGI) (OVCAR-4; OVCAR-4, MG_MID_60/value): 1.75
GI50 (Ovarian Cancer; Homo sapiens, Ovarian Cancer subpanel mean, read-out: MG_MID GI50): 4.61 µM
CC50 (Ovarian Cancer; Homo sapiens, Ovarian Cancer subpanel mean, read-out: MG_MID LC50): 50.5 µM
MG_MID TGI (Ovarian Cancer; Ovarian Cancer subpanel mean): 16.7 µM
SI (MG_MID TGI) (Ovarian Cancer; Ovarian Cancer subpanel, MG_MID_60/value): 1.11
Growth % (A498; A498, 10 μM, one dose, 48 h): −76.12%
TGI (A498; A498, 48 h): 24.6 µM
SI (TGI) (A498; A498, MG_MID_60/value): 0.76
GI50 (A498; Homo sapiens, A498, 48 h): 10.2 µM
CC50 (A498; Homo sapiens, A498, 48 h, read-out: LC50 (the source's name)): 59.6 µM
GI50 (RXF 393; Homo sapiens, RXF 393, 48 h): 1 µM
CC50 (RXF 393; Homo sapiens, RXF 393, 48 h, read-out: LC50 (the source's name)): 34 µM
TGI (RXF 393; RXF 393, 48 h): 5.80 µM
SI (TGI) (RXF 393; RXF 393, MG_MID_60/value): 3.21
GI50 (UO-31; Homo sapiens, UO-31, 48 h): 3.43 µM
CC50 (UO-31; Homo sapiens, UO-31, 48 h, read-out: LC50 (the source's name)): 38.8 µM
TGI (UO-31; UO-31, 48 h): 13.7 µM
SI (TGI) (UO-31; UO-31, MG_MID_60/value): 1.36
GI50 (Renal Cancer; Homo sapiens, Renal Cancer subpanel mean, read-out: MG_MID GI50): 4.22 µM
CC50 (Renal Cancer; Homo sapiens, Renal Cancer subpanel mean, read-out: MG_MID LC50): 44.6 µM
MG_MID TGI (Renal Cancer; Renal Cancer subpanel mean): 14.5 µM
SI (MG_MID TGI) (Renal Cancer; Renal Cancer subpanel, MG_MID_60/value): 1.28
TGI (MDA-MB-231/ATCC; 48 h): 18.8 µM
GI50 (MDA-MB-231/ATCC; Homo sapiens, 48 h): 4.77 µM
CC50 (MDA-MB-231/ATCC; [1]): 55.2 µM
SI (TGI) (MDA-MB-231/ATCC; MG_MID_60/value): 0.99
TGI (BT-549; BT-549, 48 h): 10.7 µM
SI (TGI) (BT-549; BT-549, MG_MID_60/value): 1.74
GI50 (BT-549; Homo sapiens, BT-549, 48 h): 0.81 µM
CC50 (BT-549; Homo sapiens, BT-549, 48 h, read-out: LC50 (the source's name)): 39.2 µM
